{"source": "patent US7618976B2", "about": "“Methods for the production of sildenafil base and citrate salt” (Teva Pharmaceutical Industries Ltd, priority 2004, dated 2009)", "origin": "cited, not measured here", "tested_on": "isolated human corpus cavernosum", "data": [{"smiles": "CCCc1nn(C)c2c(=O)[nH]c(-c3cc(S(=O)(=O)N4CCN(C)CC4)ccc3OCC)nc12", "note": "[Sildenafil]", "values": [{"measurement": "direct relaxant effect on isolated human corpus cavernosum", "result": "no direct relaxant effect"}]}]}
